Bounds are passed on as bounds.

For one assay, the target named is HIF-PHD3 (Homo sapiens, UniProt Q9H6Z9). The assay is described as follows: Inhibition of the catalytic activity of HIF-PHD3. The conditions noted are these: comparison compounds of WO 2008/030412; read-out: IC50 (nM) HIF-PHD-3. In kind it is biochemical. As for the experimental part: (§1) To each well of a 96-well plate was added 1 μL of test compound in DMSO and 20 μL of assay buffer (50 mM Tris pH 7.4/0.01% Tween-20/0.1 mg/ml bovine serum albumin/10 μM ferrous sulfate/1 mM sodium ascorbate/20 μg/ml catalase) containing 0.15 μg/ml FLAG-tagged full length PHD2 expressed in and purified from baculovirus-infected Sf9 cells. After a […] at room temperature, the enzymatic reactions were initiated by the addition of 4 μL of substrates (final concentrations of 0.2 μM 2-oxoglutarate and 0.5 μM HIF-1α peptide biotinyl-[…]). After 2 hr at room temperature, the reactions were terminated and signals were developed by the addition of a 25 μL quench/detection mix to a final concentration of 1 mM ortho-phenanthroline, 0.1 mM EDTA, 0.5 nM anti-(His)6 LANCE reagent (Perkin-Elmer Life Sciences), 100 nM AF647-labeled streptavidin (Invitrogen), and 2 μg/ml (His)6-VHL complex (S. Tan(2001) Protein Expr. Purif. 21, 224-234). The ratio of time resolved fluorescence signals at 665 and 620 nm was determined, and percent inhibition was calculated relative to an uninhibited control sample run in parallel.
Sequence of HIF-PHD3 (Q9H6Z9 whole entry): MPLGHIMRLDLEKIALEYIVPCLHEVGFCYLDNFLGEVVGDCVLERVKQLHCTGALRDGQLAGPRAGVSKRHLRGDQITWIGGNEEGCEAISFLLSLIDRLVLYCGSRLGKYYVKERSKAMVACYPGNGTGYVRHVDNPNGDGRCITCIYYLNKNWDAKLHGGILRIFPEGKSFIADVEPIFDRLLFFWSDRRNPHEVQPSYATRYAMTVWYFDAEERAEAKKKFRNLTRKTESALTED
(§2) Inhibition of the catalytic activity of HIF-PHD1 and HIF-PHD3 can be determined similarly.
With `CC(C)Oc1cccc(CN2CC[C@@]3(C[C@@H]2C)C(=O)N(c2ccccc2)C(=O)N3c2cccc(F)c2)c1` [Egbertson's Example 31], the IC50 is > 10000 nM.

The target in another assay is T1, HIF-PHD2 (Homo sapiens, UniProt Q9GZT9).
T1 construct: FLAG-tagged full length PHD2 expressed in and purified from baculovirus-infected Sf9 cells; FLAG; made in house; host or cells: baculovirus-infected Sf9 cells
T1 sequence (Q9GZT9 whole entry): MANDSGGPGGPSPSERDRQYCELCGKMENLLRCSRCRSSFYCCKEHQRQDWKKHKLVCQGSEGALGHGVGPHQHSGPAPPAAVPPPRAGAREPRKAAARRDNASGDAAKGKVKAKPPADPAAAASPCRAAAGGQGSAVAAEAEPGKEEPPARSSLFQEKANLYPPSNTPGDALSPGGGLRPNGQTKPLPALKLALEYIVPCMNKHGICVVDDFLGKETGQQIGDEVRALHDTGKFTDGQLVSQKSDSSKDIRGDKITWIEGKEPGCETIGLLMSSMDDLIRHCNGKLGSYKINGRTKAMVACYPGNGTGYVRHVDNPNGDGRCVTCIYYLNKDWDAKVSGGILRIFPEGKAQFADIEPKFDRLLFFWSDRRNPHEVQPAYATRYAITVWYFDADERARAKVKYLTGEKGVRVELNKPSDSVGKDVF
Briefly: Assay for HIF-PHD2 Catalytic Activity (PHD2 Binding Activity). In kind it is biochemical.
Settings: not given
Compound `Cc1cccnc1CN1CCC2(C(=O)N(c3ccc(-c4ccccc4)cc3)C(=O)N2c2nccc(O)n2)C(C(=O)O)C1` (centres unmarked) [Compound 3-4, 3-biphenyl-4-yl-1-(4-hydroxypyrimidin-2-yl)-8-[(3-methylpyridin-2-yl)methyl]-2,4-dioxo-1,3,8-triazaspiro[4.5]decane-6-carboxylic acid] yielded a half-inhibitory concentration (IC50) of 0.5 to 20 nM. Still for that read-out and setting: next, `CCOC(=O)C1CN(Cc2ncccc2C)CCC12C(=O)N(c1ccc(-c3ccccc3)cc1)C(=O)N2c1cc(O)ncn1` (centres unmarked) [Compound 3-6, Ethyl 3-biphenyl-4-yl-1-(6-hydroxypyrimidin-4-yl)-8-[(3-methylpyridin-2-yl)methyl]-2,4-dioxo-1,3,8-triazaspiro[4.5]decane-6-carboxylate]: 0.5 to 20 nM; `Cc1cccnc1CN1CCC2(C(=O)N(c3ccc(-c4ccccc4)cc3)C(=O)N2c2cc(O)ncn2)C(C(=O)O)C1` (centres unmarked) [Compound 3-7, 3-biphenyl-4-yl-1-(6-hydroxypyrimidin-4-yl)-8-[(3-methylpyridin-2-yl)methyl]-2,4-dioxo-1,3,8-triazaspiro[4.5]decane-6-carboxylic acid]: 0.5 to 20 nM. Still for that read-out and setting: under `Cc1cccnc1CN1CCC2(C(=O)N(c3ccc(-c4ccccc4)cc3)C(=O)N2c2ncccn2)C(C(=O)O)C1` (centres unmarked) [Compound 3-8, 3-biphenyl-4-yl-8-[(3-methylpyridin-2-yl)methyl]-2,4-dioxo-1-pyrimidin-2-yl-1,3,8-triazaspiro[4.5]decane-6-carboxylic acid] stands 0.5 to 20 nM. Consider `CCOC(=O)C1CN(Cc2ncccc2C)CCC12C(=O)N(c1ccc(-c3ccccc3)cc1)C(=O)N2c1cc(OC)ncn1` (centres unmarked) [Compound 3-9, Ethyl 3-biphenyl-4-yl-1-(6-methoxypyrimidin-4-yl)-8-[(3-methylpyridin-2-yl)methyl]-2,4-dioxo-1,3,8-triazaspiro[4.5]decane-6-carboxylate], for which the 50% inhibitory concentration (IC50) was in the range of 0.5 to 20 nM. Same read-out and setting: next, `Cc1cncc(N2C(=O)N(c3ccc(-c4ccc(C(=O)O)cc4C)cc3)C(=O)C23CCN(Cc2ncccc2C)CC3)n1` [Compound 7-6, 2-methyl-4′-{1-(6-methylpyrazin-2-yl)-8-[(3-methylpyridin-2-yl)methyl]-2,4-dioxo-1,3,8-triazaspiro[4.5]dec-3-yl}biphenyl-4-carboxylic acid]: 0.5 to 20 nM.

With `Cc1cncc(N2C(=O)N(c3ccc(-c4ccc(C(=O)O)cc4)cc3)C(=O)C23CCN(Cc2ncccc2C)CC3)n1` [Compound 7-7, 4′-{1-(6-methylpyrazin-2-yl)-8-[(3-methylpyridin-2-yl)methyl]-2,4-dioxo-1,3,8-triazaspiro[4.5]dec-3-yl}biphenyl-4-carboxylic acid], the IC50 lay within 0.5 to 20 nM. Same read-out and setting: under `Cc1cc(N2C(=O)N(c3ccc(-c4ccc(C(=O)O)cc4)cc3)C(=O)C23CCN(Cc2ncccc2C)CC3)ncn1` [Compound 7-9, 4′-[8-[(3-methylpyridin-2-yl)methyl]-1-(6-methylpyrimidin-4-yl)-2,4-dioxo-1,3,8-triazaspiro[4.5]dec-3-yl]biphenyl-4-carboxylic acid] stands 0.5 to 20 nM; under `COc1cc(N2C(=O)N(c3ccc(-c4ccc(C5CC(=O)NN5)cc4)cc3)C(=O)C23CCN(Cc2ncccc2C)CC3)ncn1` (centres unmarked) [Compound 7-13, 1-(6-methoxypyrimidin-4-yl)-8-[(3-methylpyridin-2-yl)methyl]-3-[4′-(5-oxopyrazolidin-3-yl)biphenyl-4-yl]-1,3,8-triazaspiro[4.5] decane-2,4-dione], 0.5 to 20 nM; under `Cc1cccnc1CN1CCC2(CC1)C(=O)N(c1ccc(Br)cc1)C(=O)N2c1cc(-c2ccc(C(=O)O)cc2)ncn1` [Compound 7-15, 4-(6-{3-(4-bromophenyl)-8-[(3-methylpyridin-2-yl)methyl]-2,4-dioxo-1,3,8-triazaspiro[4.5]dec-1-yl}pyrimidin-4-yl)benzoic acid], 0.5 to 20 nM. On the same count and under the same terms, under `COC(=O)c1ccc(-c2ccc(N3C(=O)N(c4ccncn4)C4(CCN(Cc5ncccc5C)CC4)C3=O)cc2)c(C)c1` [Compound 8-2, methyl 2-methyl-4′-{8-[(3-methylpyridin-2-yl)methyl]-2,4-dioxo-1-pyrimidin-4-yl-1,3,8-triazaspiro[4.5]dec-3-yl}biphenyl-4-carboxylate] stands 0.5 to 20 nM; under `Cc1cc(C(=O)O)ccc1-c1ccc(N2C(=O)N(c3cccnn3)C3(CCN(Cc4ncccc4C)CC3)C2=O)cc1` [Compound 9-2, 2-methyl-4′-{8-[(3-methylpyridin-2-yl)methyl]-2,4-dioxo-1-pyridazin-3-yl-1,3,8-triazaspiro[4.5]dec-3-yl}biphenyl-4-carboxylic acid], 0.5 to 20 nM; under `COc1ccnc(CN2CCC3(CC2)C(=O)N(c2ccc(-c4ccc(C(=O)O)cc4)nc2)C(=O)N3c2cc(OC)ncn2)c1` [Compound 10-3, 4-(5-{8-[(4-methoxypyridin-2-yl)methyl]-1-(6-methoxypyrimidin-4-yl)-2,4-dioxo-1,3,8-triazaspiro[4.5]dec-3-yl}-pyridin-2-yl) benzoic acid], 0.5 to 20 nM. Still for that read-out and setting: under `COc1cc(N2C(=O)N(c3ccc(-c4ccc(C(=O)O)cc4)nc3)C(=O)C23CCN(Cc2cc(O)ccn2)CC3)ncn1` [Compound 10-4, 4-(5-{8-[(4-hydroxypyridin-2-yl)methyl]-1-(6-methoxypyrimidin-4-yl)-2,4-dioxo-1,3,8-triazaspiro[4.5]dec-3-yl}-pyridin-2-yl) benzoic acid] stands 0.5 to 20 nM; under `COc1ccnc(N2C(=O)N(c3ccc(-c4ccc(C(=O)O)cc4C)nc3)C(=O)C23CCN(Cc2ncccc2C)CC3)n1` [Compound 11-2, 4-(5-{1-(4-methoxypyrimidin-2-yl)-8-[(3-methylpyridin-2-yl)methyl]-2,4-dioxo-1,3,8-triazaspiro[4.5]dec-3-yl}-pyridin-2-yl)-3-methylbenzoic acid], 0.5 to 20 nM; under `COc1cc(N2C(=O)N(c3ccc(-c4ccc(C(=O)O)cc4F)nc3)C(=O)C23CCN(Cc2ncccc2C)CC3)ncn1` [Compound 12-1, 3-fluoro-4-(5-{1-(6-methoxypyrimidine-4-yl)-8-[(3-methylpyridin-2-yl)methyl]-2,4-dioxo-1,3,8-triazaspiro[4.5]dec-3-yl}pyridin-2-yl)-3-benzoic acid], 0.5 to 20 nM. Turning to `CC(C)Oc1cccc(CN2CC[C@@]3(C[C@@H]2C)C(=O)N(c2ccccc2)C(=O)N3c2cccc(F)c2)c1` [Egbertson's Example 31], the IC50 is > 10000 nM.

Staying with this assay, now noted: read-out: PHD2 Binding Activity IC50.
For `O=C(O)CN1CCC2(CC1)NC(=O)N(c1ccc(-c3ccccc3)cc1)C2=O` [Compound 4-1, (3-biphenyl-4-yl-2,4-dioxo-1,3,8-triazaspiro[4.5]dec-8-yl)acetic acid], the IC50 was > 50 nM. Turning to `Cc1cccnc1CN1CCC2(CC1)C(=O)N(c1ccc(-c3ccccc3)cc1)C(=O)N2C(=O)NC(C)(C)C(=O)O` [Compound 5-3, 2-[({3-biphenyl-4-yl-8-[(3-methylpyridin-2-yl)methyl]-2,4-dioxo-1,3,8-triazaspiro[4.5]dec-1-yl}carbonyl)amino]-2-methylpropanoic acid], the concentration for half-maximal inhibition (IC50) was 0.5 to 20 nM. In the case of `Cc1cccnc1CN1CCC2(CC1)C(=O)N(c1ccc(-c3ccccc3)cc1)C(=O)N2C(=O)N[C@H](C)C(=O)O` [Compound 5-4, (2R)-2-[({3-biphenyl-4-yl-8-[(3-methylpyridin-2-yl)methyl]-2,4-dioxo-1,3,8-triazaspiro[4.5]dec-1-yl}carbonyl)amino]propanoic acid], the 50% inhibitory concentration (IC50) lay within 0.5 to 20 nM.

Turning to `Cc1cccnc1CN1CCC2(CC1)C(=O)N(c1ccc(-c3ccccc3)cc1)C(=O)N2C(=O)N[C@@H](C)C(=O)O` [Compound 5-5, (2S)-2-[({3-biphenyl-4-yl-8-[(3-methylpyridin-2-yl)methyl]-2,4-dioxo-1,3,8-triazaspiro[4.5]dec-1-yl}carbonyl)amino]propanoic acid], the IC50 is 0.5 to 20 nM. Same read-out and setting: next, `Cc1cccnc1CN1CCC2(CC1)C(=O)N(c1ccc(-c3ccccc3)cc1)C(=O)N2C(=O)N[C@@H](CO)C(=O)O` [Compound 5-6, N-({3-biphenyl-4-yl-8-[(3-methylpyridin-2-yl)methyl]-2,4-dioxo-1,3,8-triazaspiro[4.5]dec-1-yl}carbonyl)-L-serine]: 0.5 to 20 nM; `Cc1cccnc1CN1CCC2(CC1)C(=O)N(c1ccc(-c3ccccc3)cc1)C(=O)N2C(=O)CCC(=O)O` [Compound 5-7, 4-{3-biphenyl-4-yl-8-[(3-methylpyridin-2-yl)methyl]-2,4-dioxo-1,3,8-triazaspiro[4.5]dec-1-yl}-4-oxobutanoic acid]: 0.5 to 20 nM; `Cc1cc(C(=O)O)ccc1-c1ccc(N2C(=O)N(CC(F)(F)F)C3(CCN(Cc4ncccc4C)CC3)C2=O)cn1` [Compound 11-3, 3-methyl-4-(5-{8-[(3-methylpyridin-2-yl)methyl]-2,4-dioxo-1-(2,2,2-trifluoroethyl)-1,3,8-triazaspiro[4.5]dec-3-yl}-pyridin-2-yl) benzoic acid]: 0.5 to 20 nM.

For a further assay, the target named is HIF-PHD1 (Homo sapiens, UniProt Q96KS0). Briefly: Inhibition of the catalytic activity of HIF-PHD1. The settings on record: comparison compounds of WO 2008/030412; read-out: IC50 (nM) HIF-PHD-1. The assay is classed as biochemical. How it is done: as §1, §2
Sequence of HIF-PHD1 (Q96KS0 whole entry): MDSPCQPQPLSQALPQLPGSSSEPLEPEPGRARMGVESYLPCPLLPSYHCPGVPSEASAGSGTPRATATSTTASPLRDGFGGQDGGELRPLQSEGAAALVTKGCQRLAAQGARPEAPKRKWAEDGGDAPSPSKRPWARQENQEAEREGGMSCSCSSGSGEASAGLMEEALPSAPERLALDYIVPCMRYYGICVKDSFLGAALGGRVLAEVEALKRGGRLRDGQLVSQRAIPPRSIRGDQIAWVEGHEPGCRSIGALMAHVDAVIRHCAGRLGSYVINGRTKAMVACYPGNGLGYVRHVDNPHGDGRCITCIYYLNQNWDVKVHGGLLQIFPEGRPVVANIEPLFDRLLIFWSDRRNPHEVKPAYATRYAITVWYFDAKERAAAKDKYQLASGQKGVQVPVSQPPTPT
In the case of `CC(C)Oc1cccc(CN2CC[C@@]3(C[C@@H]2C)C(=O)N(c2ccccc2)C(=O)N3c2cccc(F)c2)c1` [Egbertson's Example 31], the IC50 was > 10000 nM.

The values are drawn from patent US8921555B2, “Substituted-1,3,8-triazaspiro[4.5]decane-2,4-diones” (Merck Sharp & Dohme Corp., priority 2009, dated 2014).
